# Experimental data as given in PubChem BioAssay (NCI).
#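 Five concentrations, 48 hours, 96-well plates. Here, GI50 denotes the concentration required for 50% inhibition of growth. At the TGI there is no net growth.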
# Assays:
# Experiment in all cases: DTP human tumour cell line panel, 48 h
# 786-0 renal = system: 786-0 renal
# A498 renal = system: A498 renal
# A549 NSCLC = system: A549 NSCLC
# ACHN renal = system: ACHN renal
# BT-549 breast = system: BT-549 breast
# CCRF-CEM leukemia = system: CCRF-CEM leukemia
# COLO 205 colon = system: COLO 205 colon
# DU-145 prostate = system: DU-145 prostate
# EKVX NSCLC = system: EKVX NSCLC
# HCC-2998 colon = system: HCC-2998 colon
# HCT-116 colon = system: HCT-116 colon
# HCT-15 colon = system: HCT-15 colon
# HL-60(TB) leukemia = system: HL-60(TB) leukemia
# HOP-62 NSCLC = system: HOP-62 NSCLC
# HOP-92 NSCLC = system: HOP-92 NSCLC
# HS 578T breast = system: HS 578T breast
# HT29 colon = system: HT29 colon
# IGROV1 ovarian = system: IGROV1 ovarian
# K-562 leukemia = system: K-562 leukemia
# KM12 colon = system: KM12 colon
# LOX IMVI melanoma = system: LOX IMVI melanoma
# M14 melanoma = system: M14 melanoma
# MALME-3M melanoma = system: MALME-3M melanoma
# MDA-MB-231 breast = system: MDA-MB-231 breast
# MDA-MB-435 = system: MDA-MB-435
# MDA-N = system: MDA-N
# MOLT-4 leukemia = system: MOLT-4 leukemia
# NCI-H226 lung = system: NCI-H226 lung
# NCI-H23 lung = system: NCI-H23 lung
# NCI-H460 lung = system: NCI-H460 lung
# NCI-H522 lung = system: NCI-H522 lung
# NCI/ADR-RES ovarian = system: NCI/ADR-RES ovarian
# OVCAR-3 ovarian = system: OVCAR-3 ovarian
# OVCAR-4 ovarian = system: OVCAR-4 ovarian
# OVCAR-5 ovarian = system: OVCAR-5 ovarian
# OVCAR-8 ovarian = system: OVCAR-8 ovarian
# PC-3 prostate = system: PC-3 prostate
# RPMI-8226 leukemia = system: RPMI-8226 leukemia
# RXF 393 renal = system: RXF 393 renal
# SF-268 CNS = system: SF-268 CNS
# SF-295 CNS = system: SF-295 CNS
# SF-539 CNS = system: SF-539 CNS
# SK-MEL-2 melanoma = system: SK-MEL-2 melanoma
# SK-MEL-28 melanoma = system: SK-MEL-28 melanoma
# SK-MEL-5 melanoma = system: SK-MEL-5 melanoma
# SK-OV-3 ovarian = system: SK-OV-3 ovarian
# SN12C renal = system: SN12C renal
# SNB-19 CNS = system: SNB-19 CNS
# SNB-75 CNS = system: SNB-75 CNS
# SR leukemia = system: SR leukemia
# SW-620 colon = system: SW-620 colon
# T-47D breast = system: T-47D breast
# TK-10 renal = system: TK-10 renal
# U251 CNS = system: U251 CNS
# UACC-257 melanoma = system: UACC-257 melanoma
# UACC-62 melanoma = system: UACC-62 melanoma
# UO-31 renal = system: UO-31 renal
# CAKI-1 renal = system: CAKI-1 renal
# MCF7 breast = system: MCF7 breast
smiles,measurement,setting,value
CC(=O)CC(C)(C)NC(=O)[C@@]1(O)CC[C@H]2[C@@H]3CCC4=CC(=O)CC[C@@H]4[C@H]3CC[C@@]21C,TGI,786-0 renal,> 100 µM
same,TGI,A498 renal,> 100 µM
same,TGI,A549 NSCLC,> 100 µM
same,TGI,ACHN renal,> 100 µM
same,TGI,BT-549 breast,> 100 µM
same,TGI,CCRF-CEM leukemia,> 100 µM
same,TGI,COLO 205 colon,> 100 µM
same,TGI,DU-145 prostate,> 100 µM
same,TGI,EKVX NSCLC,> 100 µM
same,TGI,HCC-2998 colon,> 100 µM
same,TGI,HCT-116 colon,> 100 µM
same,TGI,HCT-15 colon,> 100 µM
same,TGI,HL-60(TB) leukemia,> 100 µM
same,TGI,HOP-62 NSCLC,> 100 µM
same,TGI,HOP-92 NSCLC,> 100 µM
same,TGI,HS 578T breast,> 100 µM
same,TGI,HT29 colon,> 100 µM
same,TGI,IGROV1 ovarian,> 100 µM
same,TGI,K-562 leukemia,> 100 µM
same,TGI,KM12 colon,> 100 µM
same,TGI,LOX IMVI melanoma,> 100 µM
same,TGI,M14 melanoma,> 100 µM
same,TGI,MALME-3M melanoma,> 100 µM
same,TGI,MDA-MB-231 breast,> 100 µM
same,TGI,MDA-MB-435,> 100 µM
same,TGI,MDA-N,> 100 µM
same,TGI,MOLT-4 leukemia,> 100 µM
same,TGI,NCI-H226 lung,> 100 µM
same,TGI,NCI-H23 lung,> 100 µM
same,TGI,NCI-H460 lung,> 100 µM
same,TGI,NCI-H522 lung,> 100 µM
same,TGI,NCI/ADR-RES ovarian,> 100 µM
same,TGI,OVCAR-3 ovarian,> 100 µM
same,TGI,OVCAR-4 ovarian,> 100 µM
same,TGI,OVCAR-5 ovarian,> 100 µM
same,TGI,OVCAR-8 ovarian,> 100 µM
same,TGI,PC-3 prostate,> 100 µM
same,TGI,RPMI-8226 leukemia,> 100 µM
same,TGI,RXF 393 renal,> 100 µM
same,TGI,SF-268 CNS,> 100 µM
same,TGI,SF-295 CNS,> 100 µM
same,TGI,SF-539 CNS,> 100 µM
same,TGI,SK-MEL-2 melanoma,> 100 µM
same,TGI,SK-MEL-28 melanoma,> 100 µM
same,TGI,SK-MEL-5 melanoma,> 100 µM
same,TGI,SK-OV-3 ovarian,> 100 µM
same,TGI,SN12C renal,> 100 µM
same,TGI,SNB-19 CNS,> 100 µM
same,TGI,SNB-75 CNS,> 100 µM
same,TGI,SR leukemia,> 100 µM
same,TGI,SW-620 colon,> 100 µM
same,TGI,T-47D breast,> 100 µM
same,TGI,TK-10 renal,> 100 µM
same,TGI,U251 CNS,> 100 µM
same,TGI,UACC-257 melanoma,> 100 µM
same,TGI,UACC-62 melanoma,> 100 µM
same,TGI,UO-31 renal,> 100 µM
Oc1c(Cl)cc(Cl)c2cccnc12,GI50,786-0 renal,3.29 µM
same,TGI,786-0 renal,11.8 µM
same,GI50,A498 renal,2920 nM
same,TGI,A498 renal,12.1 µM
same,GI50,A549 NSCLC,3.49 µM
same,TGI,A549 NSCLC,29.6 µM
same,GI50,ACHN renal,3.78 µM
same,TGI,ACHN renal,40.5 µM
same,GI50,BT-549 breast,4.12 µM
same,TGI,BT-549 breast,52.7 µM
same,GI50,CAKI-1 renal,2710 nM
same,TGI,CAKI-1 renal,19 µM
same,GI50,CCRF-CEM leukemia,2750 nM
same,TGI,CCRF-CEM leukemia,> 100 µM
same,GI50,COLO 205 colon,3.43 µM
same,TGI,COLO 205 colon,13.4 µM
same,GI50,DU-145 prostate,4.51 µM
same,TGI,DU-145 prostate,45.7 µM
same,GI50,EKVX NSCLC,2900 nM
same,TGI,EKVX NSCLC,15.2 µM
same,GI50,HCC-2998 colon,10.1 µM
same,TGI,HCC-2998 colon,26 µM
same,GI50,HCT-116 colon,2970 nM
same,TGI,HCT-116 colon,10.1 µM
same,GI50,HCT-15 colon,4.73 µM
same,TGI,HCT-15 colon,25.9 µM
same,GI50,HL-60(TB) leukemia,2870 nM
same,TGI,HL-60(TB) leukemia,6.65 µM
same,GI50,HOP-62 NSCLC,2240 nM
same,TGI,HOP-62 NSCLC,21.1 µM
same,GI50,HOP-92 NSCLC,2800 nM
same,TGI,HOP-92 NSCLC,26.3 µM
same,GI50,HS 578T breast,6.88 µM
same,TGI,HS 578T breast,> 100 µM
same,GI50,HT29 colon,4.99 µM
same,TGI,HT29 colon,18 µM
same,GI50,IGROV1 ovarian,3.72 µM
same,TGI,IGROV1 ovarian,18.8 µM
same,GI50,K-562 leukemia,3.77 µM
same,TGI,K-562 leukemia,> 100 µM
same,GI50,KM12 colon,4.58 µM
same,TGI,KM12 colon,16.7 µM
same,GI50,LOX IMVI melanoma,2180 nM
same,TGI,LOX IMVI melanoma,15.7 µM
same,GI50,M14 melanoma,1960 nM
same,TGI,M14 melanoma,5.26 µM
same,GI50,MALME-3M melanoma,2780 nM
same,TGI,MALME-3M melanoma,13.1 µM
same,GI50,MCF7 breast,3.75 µM
same,TGI,MCF7 breast,13.8 µM
same,GI50,MDA-MB-231 breast,3.04 µM
same,TGI,MDA-MB-231 breast,18.3 µM
same,GI50,MDA-MB-435,3.84 µM
same,TGI,MDA-MB-435,> 100 µM
same,GI50,MOLT-4 leukemia,3.41 µM
same,TGI,MOLT-4 leukemia,17.8 µM
same,GI50,NCI-H226 lung,3.15 µM
same,TGI,NCI-H226 lung,14.7 µM
same,GI50,NCI-H23 lung,4.2 µM
same,TGI,NCI-H23 lung,42.5 µM
same,GI50,NCI-H460 lung,1870 nM
same,TGI,NCI-H460 lung,6.9 µM
same,GI50,NCI-H522 lung,1830 nM
same,TGI,NCI-H522 lung,4.85 µM
same,GI50,NCI/ADR-RES ovarian,3.3 µM
same,TGI,NCI/ADR-RES ovarian,> 100 µM
same,GI50,OVCAR-3 ovarian,3.17 µM
same,TGI,OVCAR-3 ovarian,11.6 µM
same,GI50,OVCAR-4 ovarian,2320 nM
same,TGI,OVCAR-4 ovarian,7.85 µM
same,GI50,OVCAR-5 ovarian,8.71 µM
same,TGI,OVCAR-5 ovarian,43.3 µM
same,GI50,OVCAR-8 ovarian,2750 nM
same,TGI,OVCAR-8 ovarian,54.6 µM
same,GI50,PC-3 prostate,3.94 µM
same,TGI,PC-3 prostate,> 100 µM
same,GI50,RPMI-8226 leukemia,4.34 µM
same,TGI,RPMI-8226 leukemia,> 100 µM
same,GI50,RXF 393 renal,2250 nM
same,TGI,RXF 393 renal,7.91 µM
same,GI50,SF-268 CNS,3.39 µM
same,TGI,SF-268 CNS,> 100 µM
same,GI50,SF-295 CNS,1960 nM
same,TGI,SF-295 CNS,> 100 µM
same,GI50,SF-539 CNS,4.08 µM
same,TGI,SF-539 CNS,71.1 µM
same,GI50,SK-MEL-2 melanoma,3.83 µM
same,TGI,SK-MEL-2 melanoma,11.5 µM
same,GI50,SK-MEL-28 melanoma,3.96 µM
same,TGI,SK-MEL-28 melanoma,29.4 µM
same,GI50,SK-MEL-5 melanoma,1760 nM
same,TGI,SK-MEL-5 melanoma,3.59 µM
same,GI50,SK-OV-3 ovarian,3.71 µM
same,TGI,SK-OV-3 ovarian,16.2 µM
same,GI50,SN12C renal,3.39 µM
same,TGI,SN12C renal,51.8 µM
same,GI50,SNB-19 CNS,3.73 µM
same,TGI,SNB-19 CNS,24.6 µM
same,GI50,SNB-75 CNS,6.27 µM
same,TGI,SNB-75 CNS,> 100 µM
same,GI50,SR leukemia,2680 nM
same,TGI,SR leukemia,9.48 µM
same,GI50,SW-620 colon,4.47 µM
same,TGI,SW-620 colon,18.4 µM
same,GI50,T-47D breast,2350 nM
same,TGI,T-47D breast,12 µM
same,GI50,TK-10 renal,5.56 µM
same,TGI,TK-10 renal,30.8 µM
same,GI50,U251 CNS,2670 nM
same,TGI,U251 CNS,55 µM
same,GI50,UACC-257 melanoma,2260 nM
same,TGI,UACC-257 melanoma,7.24 µM
same,GI50,UACC-62 melanoma,1790 nM
same,TGI,UACC-62 melanoma,5.04 µM
same,GI50,UO-31 renal,2500 nM
same,TGI,UO-31 renal,9.31 µM
